Laboratory results published in patent EP4722358A1 (AJOU UNIVERSITY INDUSTRY-ACADEMIC COOPERATION FOUNDATION, priority 2023, dated 2024).

Experiments:
Assay in all cases: Enzymatic reaction rate with glycerol (MBTH assay)
Type in all cases: biochemical
[1] = system: Klebsiella pneumoniae fused glycerol dehydratase fGDHt variant A177M/L113W(α/β); conditions: substrate glycerol, MBTH assay 5 minutes, deoxygenated 35 mM phosphate buffer (pH 8.0), 2 µM coenzyme B12
Experimental: (§1) The activities of the wild-type and variant enzymes were measured at 25°C using 3-methyl-2-benzothiazolinone hydrazone (MBTH). To eliminate oxygen inactivation, the enzymes were incubated for 5 minutes in 35 mM phosphate buffer (pH 8.0) stirred with a negative pressure pump. The reaction was initiated by the addition of glycerol. The absorbance measured at 670 nm of the variant was compared with that of the wild-type fGDHt to determine the relative substrate activity (FIG. 10). The MBTH assay was performed as follows:
(§2) The reaction was then initiated by adding glycerol, the substrate to the assay mixture. The reaction was performed for 5 minutes and the reaction was terminated by adding 12 mg/mL MBTH and 0.1 M potassium citrate buffer (pH 3.6). Five minutes after the reaction was terminated, FeCl3 was added thereto and the reaction was performed for 15 minutes. The absorbance was measured at 670 nm.
(§3) Km and Kcat were calculated using the following Equation (Michaelis-Menten equation): v = (d[P])/(dt) = Vmax ([S])/(KM + [S]) = kcat [E]0 ([S])/(KM + [S]) [formula]
(§4) wherein Km is the Michaelis constant and Kcat is the enzyme turnover number.

[2] = system: Klebsiella pneumoniae fused glycerol dehydratase fGDHt variant M158W(β); conditions: substrate glycerol, MBTH assay 5 minutes, deoxygenated 35 mM phosphate buffer (pH 8.0), 2 µM coenzyme B12
Experimental: as §1, §2, §3, §4

[3] = system: Klebsiella pneumoniae fused glycerol dehydratase fGDHt variant A177M/L113W/M158W(α/β/β); conditions: substrate glycerol, MBTH assay 5 minutes, deoxygenated 35 mM phosphate buffer (pH 8.0), 2 µM coenzyme B12
Experimental: as §1, §2, §3, §4

[4] = system: Klebsiella pneumoniae fused glycerol dehydratase fGDHt variant A177M(α); conditions: substrate glycerol, MBTH assay 5 minutes, deoxygenated 35 mM phosphate buffer (pH 8.0), 2 µM coenzyme B12
Experimental: as §1, §2, §3, §4

[5] = system: Klebsiella pneumoniae fused glycerol dehydratase fGDHt variant L113W(β); conditions: substrate glycerol, MBTH assay 5 minutes, deoxygenated 35 mM phosphate buffer (pH 8.0), 2 µM coenzyme B12
Experimental: as §1, §2, §3, §4

[6] = system: Klebsiella pneumoniae glycerol dehydratase, fGDHt (alpha-beta fused subunit, stop codon TAA changed to glutamine CAA), SEQ ID NO: 4; conditions: substrate glycerol, MBTH assay 5 minutes, deoxygenated 35 mM phosphate buffer (pH 8.0), 2 µM coenzyme B12
Experimental: as §1, §2, §3, §4

[7] = system: Klebsiella pneumoniae fused glycerol dehydratase fGDHt variant A177M/M158W(α/β); conditions: substrate glycerol
Experimental: as §1, §2, §3, §4

[8] = system: Klebsiella pneumoniae fused glycerol dehydratase fGDHt variant L113F(β); conditions: substrate glycerol
Experimental: as §1, §2, §3, §4

[9] = FGDHt(A177M/M158W(α/β)), MBTH assay 5 minutes, deoxygenated 35 mM phosphate buffer (pH 8.0), 2 µM coenzyme B12
[10] = fGDHt (L113F(β)), MBTH assay 5 minutes, deoxygenated 35 mM phosphate buffer (pH 8.0), 2 µM coenzyme B12

SMILES: OCC(O)CO [glycerol]
- Kcat [1]: 31.96 ± 9.42 s⁻¹
- Km [2]: 340 ± 50 µM
- Kcat [3]: 28.93 ± 2.17 s⁻¹
- Km [3]: 140 ± 40 µM
- Kcat [4]: 107.48 ± 14.91 s⁻¹
- Km [4]: 360 ± 70 µM
- Kcat [5]: 31.82 ± 10.99 s⁻¹
- Km [5]: 520 ± 170 µM
- Kcat [6]: 230.28 ± 10.63 s⁻¹
- Km [6]: 270 ± 30 µM
- kcat/Km higher than those of fGDHt ([7]; A177M/M158W (α/β) compared with fGDHt): 8%
- Kcat [7, 9]: 155.47 ± 13.23 s⁻¹
- Km [7, 9]: 150 ± 40 µM
- kcat/Km higher than those of fGDHt ([8]; L113F (β) compared with fGDHt): 6%
- Kcat [8, 10]: 208.62 ± 21.8 s⁻¹
- Km [8, 10]: 240 ± 60 µM
